Legend:
BSA = BSA (Bos taurus, UniProt P02769); assay: Glycation of BSA by glucose (anti-CML Western blot and fluorescence assay); type: biochemical; conditions: 100 mM glucose, 14 days 37° C., 100 μM fisetin; Western blotting with a-CML and fluorescence assay
Protocol: In reference to FIG. 1, BSA was incubated with either 100 mM glucose (G) or 100 mM methylglyoxal (MG) for 14 days at 37° C. plus or minus 100 μM fisetin. The BSA was dialyzed vs. PBS run on SDS-PAGE and blotted with anti-carboxymethyl lysine (CML) (a glucose AGE) or anti-MG adducts from Dr. Brownlee. […] In FIG. 1, panel B, anti-MG only reacts with MG treated BSA and also causes protein polymerization. In FIG. 1, panel C, co-incubation with fisetin results in inhibition of glucose glycation in 2 assays, Western blotting with a-CML (BL, hatched bars) and a fluorescence assay for protein glycation (FL, clear bars). In FIG. 1, panel D, fisetin inhibited protein glycation caused by high glucose exposure of human brain microvascular cells. Cells were exposed to either 5 mM (−Glu) or 25 mM (+Glu) glucose for 5 days plus (F) or minus (C) 1 μM fisetin. Cells were then harvested and blotted with either anti-CML or MG antisera.

STZ-diabetic rats [1] = assay: Indices of nerve function in STZ-diabetic rats; type: in vivo, Sprague-Dawley rats; conditions: 25 mg/kg/day fisetin for 8 weeks
Protocol: Adult female Sprague-Dawley rats were made diabetic with STZ and treated with vehicle or 25 mg/kg/day fisetin for 8 weeks. Large fiber function was tested by measuring nerve conduction velocity and paw withdrawal to touch and small fiber function by paw withdrawal to noxious heat. […] Data are mean±SEM of N=4-8/group.

STZ-diabetic rats [2] = assay: Kidney function (urine albumin/creatinine ratio) in STZ-diabetic rats; type: in vivo, Sprague-Dawley rats; conditions: 25 mg/kg/day fisetin; 6 and 8 weeks after induction of diabetes
Protocol: (§1) Urine albumin concentration was determined by competitive enzyme-linked immunoadsorbent assay using an Albuwell M kit (Exocell, Philadelphia, Pa.). Urine creatinine concentration was determined by Jaffe's reaction of alkaline picrate with creatinine using a Creatinine Companion kit (Exocell). Results are expressed as the urine albumin-to-creatinine ratio (micrograms per milligram).
Adult female Sprague-Dawley rats were made diabetic with STZ and treated with vehicle or 25 mg/kg/day fisetin. Kidney function was assessed by measuring the albumin/creatinine ratio in the urine at 6 and 8 weeks following induction of diabetes. Fisetin reduced diabetes-induced proteinuria. Data are mean±SEM of N=7-8/group.

Akita mice [3] = assay: Urine albumin/creatinine ratio in Akita mice; type: in vivo; conditions: fisetin 0.05% in diet for 18 weeks
Protocol: as §1
Male Akita mice were fed control diet or fisetin (0.05%) for 18 weeks beginning at 6 weeks of age. Kidney hypertrophy was assessed by weighing the kidneys. Kidney function was assessed by measuring the albumin/creatinine ratio in the urine. Fisetin reduced diabetes-induced renal hypertrophy and proteinuria. All data are mean±SD of N=5-7/group.

Akita mice [4] = assay: Open field test in Akita mice; type: in vivo; conditions: fisetin 0.05% in diet for 18 weeks
Protocol: The open field test was performed using MED Associates hardware and the Activity Monitor software according to the manufacturer's instructions (MED Associates Inc, St. Albans, Vt., USA). The open-field activity monitoring system contains a subject containment environment (chamber), infrared (I/R) sources and sensors. To perform the test, each mouse was placed in the testing chamber and the activity tracked by the Activity Monitor software for 30 min. The scanning was done every 50 ms. The behavioral parameters derived from the open field test included the following: distance traveled, ambulatory time and counts, stereotypic counts and time, resting time, vertical counts and time, jumping counts and time, average velocity, and ambulatory episodes.
Male Akita mice were fed control diet or fisetin (0.05%) for 18 weeks beginning at 6 weeks of age. Locomotor activity was measured in the open field test. Decreased locomotor activity is an indicator of elevated anxiety which is characteristic of diabetics in poor glycemic control. […] All data are mean±SD of N=5-7/group.

C-reactive protein = assay: Serum C-reactive protein in Akita mice (Western blot); type: in vivo; conditions: fisetin-rich diet
Protocol: C-reactive protein in serum was measured by SDS-PAGE and Western blotting analysis of mouse serum using an antibody from R&D.
C-reactive protein is an acute phase protein that increases during chronic inflammation such as is seen in diabetes. Equal amounts of serum from wild type, wild type+fisetin, Akita and Akita+fisetin mice were analyzed by SDS-PAGE and immunoblotting with an antibody to C-reactive protein. Samples from 6-7 mice were analyzed and the average intensity of the C-reactive protein band determined. The data were analyzed by ANOVA followed by Tukey's post test. *** P<0.001.

osteopontin (OPN) = assay: Kidney osteopontin (OPN) in Akita mice (immunoblot); type: in vivo; conditions: fisetin in diet, OPN band normalized to actin
Protocol: Kidneys were homogenized in phosphate buffered saline containing protease and phosphatase inhibitors. Equal amounts of protein, as determined by the BCA assay (Pierce), were solubilized in SDS-sample buffer containing 0.1 mM Na3VO4 and 1 mM phenylmethylsulfonyl fluoride (PMSF), boiled for 5 min and either analyzed immediately or stored frozen at −70° C. Proteins were separated on 10% SDS-polyacrylamide gels and transferred to nitrocellulose. Equal loading and transfer of the samples was confirmed by staining the nitrocellulose with Ponceau-S. Transfers were blocked for 1 h at room temperature with 5% nonfat milk in TBS/0.1% Tween 20 and then incubated overnight at 4° C. in the primary antibody diluted in 5% BSA in TBS/0.05% Tween 20. The primary antibodies used were: rabbit anti-osteopontin (Millipore) and actin-HRP (Cell Signaling). […]
OPN is a key regulator of the pathophysiological changes associated with diabetic nephropathy (Nicolas et al. Kidney Int. advance online publication, 3 Feb. 2010). […] Kidney samples from 6-7 mice were analyzed and the average intensity of the OPN band normalized to actin is shown in the graph. […] In FIG. 10, the data was analyzed by ANOVA followed by Tukey's post test. *** P<0.001

[5] = test system: peripheral and CNS immune cells; conditions: peripheral [17] and CNS [8] immune cells; cited from earlier work

Chain of BSA (P02769 25-607): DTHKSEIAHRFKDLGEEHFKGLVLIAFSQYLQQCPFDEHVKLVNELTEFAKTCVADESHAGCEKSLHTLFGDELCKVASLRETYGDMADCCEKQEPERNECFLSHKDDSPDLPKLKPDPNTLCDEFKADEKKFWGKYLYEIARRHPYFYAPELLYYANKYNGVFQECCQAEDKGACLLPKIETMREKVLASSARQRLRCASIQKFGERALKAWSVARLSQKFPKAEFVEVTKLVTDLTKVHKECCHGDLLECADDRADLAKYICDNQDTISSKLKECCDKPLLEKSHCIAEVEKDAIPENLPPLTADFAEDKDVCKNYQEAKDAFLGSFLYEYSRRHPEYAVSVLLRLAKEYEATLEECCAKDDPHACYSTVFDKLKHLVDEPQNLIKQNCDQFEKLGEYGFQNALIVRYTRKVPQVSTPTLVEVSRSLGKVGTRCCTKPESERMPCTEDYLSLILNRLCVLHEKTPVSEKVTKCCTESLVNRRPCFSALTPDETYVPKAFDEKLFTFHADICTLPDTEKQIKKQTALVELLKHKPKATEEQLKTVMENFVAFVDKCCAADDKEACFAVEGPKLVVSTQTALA

With `O=c1c(O)c(-c2ccc(O)c(O)c2)oc2cc(O)ccc12` [fisetin, 2-(3,4-dihydroxyphenyl)-3,7-dihydroxychromen-4-one] the “glucose glycation of BSA” value (BSA) was “inhibition”, the “diabetes-induced SNCV slowing” value (STZ-diabetic rats [1]) was “ameliorated” and the severity of diabetes (STZ-diabetic rats [1]) was “did not alter”. The “tactile allodynia (paw withdrawal to touch)” value (STZ-diabetic rats [1]) was “ameliorated”, the “thermal hyperalgesia (paw withdrawal to noxious heat)” value (STZ-diabetic rats [1]) was “ameliorated” and the “diabetes-induced proteinuria (urine albumin/creatinine ratio)” value (STZ-diabetic rats [2]) was “reduced”. The “proteinuria (urine albumin/creatinine ratio)” value (Akita mice [3]) was “almost completely prevented”, the “proteinuria (urine albumin/creatinine ratio)” value (Akita mice [3]; listed as Fisetin) was “reduced” and the “locomotor activity in the open field test (distance traveled, ambulatory episodes)” value (Akita mice [4]) was “restored to near normal values”. The “locomotor activity in the open field test (distance traveled, ambulatory episodes)” value (Akita mice [4]; listed as Fisetin) was “restored locomotor activity to nearly control levels”, the “diabetes-induced increase in serum C-reactive protein” value (C-reactive protein) was “largely prevented” and the “diabetes-dependent upregulation of osteopontin (OPN) in kidney” value (osteopontin (OPN)) was “Prevented”. The anti-inflammatory activity [5] was “anti-inflammatory activity”.
